Assay results from a melting point compilation (Tetko et al.).

Structure (SMILES)	melting point
O=C(Cc1cc(I)c(Oc2cc(I)c(OCC3CO3)c(I)c2)c(I)c1)NC1CCCCC1 (stereo not given)	242 °C
CCCCCc1ccc(OCCCCCCOc2ccc(-c3ccc4c5c(c(C(=O)OCC)cc4c3)C=CC(c3ccccc3)(c3ccc(N4CCCCC4)cc3)O5)cc2)cc1 (stereo not given)	85 to 86 °C
CCSC(C)CC1CC(=O)C(=C(CC)NOCC=CCl)C(=O)C1 (stereo not given)	< 25 °C
Cc1ccccc1-n1c(-c2cc(-c3ccncc3)c(N3CCOCC3)s2)nc2ccccc2c1=O	208 to 210 °C
CS(=N)(=O)c1ccc(-n2cnnn2)cc1 (stereo not given)	180 to 181 °C
CCCCCCC1(CCCCCC)c2cc(Br)ccc2-c2ccc(-c3ccc(-c4ccc5c(c4)C(CCCCCC)(CCCCCC)c4cc(Br)ccc4-5)c4snnc34)cc21	188 to 190 °C
CC(C)[C@H](NC(=O)N(C)CCc1ccccn1)C(=O)N[C@@H](Cc1ccccc1)[C@H](O)[C@@H](O)[C@H](Cc1ccccc1)NC(=O)[C@@H](NC(=O)N(C)CCc1ccccn1)C(C)C	109 to 111 °C
COc1cc(OC)c(/C=C/C(c2ccc(OC)c(NS(=O)(=O)C(F)(F)F)c2)S(=O)(=O)C(/C=C/c2c(OC)cc(OC)cc2OC)c2ccc(OC)c(NS(=O)(=O)C(F)(F)F)c2)c(OC)c1 (stereo not given)	144 to 146 °C
[C-]#[N+]C(C)C(=O)NCC1CC2CC(C1C)C2(C)C (stereo not given)	58 to 59 °C
COC(=O)C(C)(C)NC(=O)Nc1ccc(Cl)cc1	135 to 136 °C
CCC(C=CC(C)C1CCC2C3CC=C4CC(OC(=O)N(CC(O)COC(c5ccccc5)(c5ccccc5)c5ccccc5)C(C)C)CCC4(C)C3CCC12C)C(C)C (stereo not given)	75 to 76 °C
CC(C)[C@H](NC(=O)N(C)Cc1csc(N)n1)C(=O)N[C@@H](Cc1ccccc1)C[C@H](O)[C@H](Cc1ccccc1)NC(=O)[C@@H](NC(=O)N(C)Cc1csc(N)n1)C(C)C	110 to 114 °C
FC(F)(F)C(F)(F)C(F)(F)C(F)(F)C(F)(F)C(F)(F)C(F)(F)C(F)(F)CCC1(CCC(F)(F)C(F)(F)C(F)(F)C(F)(F)C(F)(F)C(F)(F)C(F)(F)C(F)(F)F)c2cc(Br)ccc2-c2ccc(Br)cc21	130 to 131 °C
CN(C)c1ccccn1	0 °C
COc1cc(C(=O)O)ccc1Cc1cn(C(C)=O)c2ccc(NC(=O)CC3CCCC3)cc12	245 to 247 °C
COc1cc(OC)c(/C=C/C(c2ccc(OC)c(NC(=O)c3ccccc3)c2)S(=O)(=O)C(/C=C/c2c(OC)cc(OC)cc2OC)c2ccc(OC)c(NC(=O)c3ccccc3)c2)c(OC)c1 (stereo not given)	163 to 166 °C
Cc1ccc(O)c(Br)c1	16 °C
CCC1(CC)c2cc(-c3nc4cc5sc(-c6ccc7c(c6)C(CC)(CC)c6cc(N(c8ccccc8)c8ccccc8)ccc6-7)nc5cc4s3)ccc2-c2ccc(N(c3ccccc3)c3ccccc3)cc21	180 to 183 °C
CC(=O)Oc1c(C)cc(Oc2ccc3nc(COc4ccc(CC5SC(=O)N(C(c6ccccc6)(c6ccccc6)c6ccccc6)C5=O)cc4)n(C)c3n2)c(C)c1C (stereo not given)	190 to 191 °C
O=C(Nc1ccc(Br)cc1)OC1CCCNC1 (stereo not given)	169 to 170 °C
O=CCCCCCCOc1ccc(OCc2ccccc2)cc1	65 to 67 °C

Structure (SMILES)	melting point
CCC1(O)CC(OC2CC(N(C)C)C(OC3CC4OC5CC(=O)C(C)OC5OC4C(C)O3)C(C)O2)c2c(cc3c(c2O)C(=O)c2c(O)cccc2C3=O)C1C(=O)OC (stereo not given)	161 °C
CNC(=O)[C@@H](NC(=O)[C@@H](NC(=O)c1c(I)c(NC(C)=O)c(I)c(C(=O)O)c1I)C(C)C)C(C)C	247 to 248 °C
CCCCCCCCCCCCN(CCCCCCCCCCCC)c1ccc2c(c1)O/C(=C1\Oc3cc(N(CCCCCCCCCCCC)CCCCCCCCCCCC)ccc3C1=O)C2=O	105 °C
O=S(=O)(OCC(I)C(F)(F)C(F)(F)C(F)(F)C(F)(F)F)OCC(I)C(F)(F)C(F)(F)C(F)(F)C(F)(F)F (stereo not given)	45 to 48 °C
COc1cc(COc2nn(-c3ccccc3)cc2/C=C/c2nc(N3CCN(C(=O)OC(C)(C)C)CC3)sc2C)ccc1OCc1nc(-c2ccc(CC(=O)O)cc2)oc1C	119 to 120 °C
CCCCCCCCCCCCCCCCCCCCCCCCCCCCCCCCCCCCCCCCCCCC	87.5 to 88 °C
O=C(NCC(COC(C(F)(F)F)(C(F)(F)F)C(F)(F)F)(COC(C(F)(F)F)(C(F)(F)F)C(F)(F)F)C(=O)O)OCC1c2ccccc2-c2ccccc21	104 to 105 °C
Cc1ccc(S(=O)(=O)N2CCN(S(=O)(=O)c3ccc(C)cc3)CCN(S(=O)(=O)c3ccc(C)cc3)CC(CC(C)C)N(S(=O)(=O)c3ccc(C)cc3)CCN(S(=O)(=O)c3ccc(C)cc3)CC2)cc1 (stereo not given)	142 to 145 °C
COc1c(Oc2nc3ccccc3o2)c(C)c(C)n(Cc2ccccc2)c1=O	197 to 198 °C
CN1CCCC1=NC(=O)Nc1ccc(OCc2ccccc2)cc1	140 to 142 °C
Cc1cc(C)c(N2c3ccccc3S(=O)(=O)c3cc(C=Cc4ccc(-c5ccc(C=Cc6ccc7c(c6)S(=O)(=O)c6ccccc6N7c6c(C)cc(C)cc6C)cc5)cc4)ccc32)c(C)c1	> 350 °C
CCOc1cc2c(cc1O)CCC1C2CCC2(C)C(O)CCC12 (stereo not given)	154 to 155 °C
CC1(C)CC(N(c2nc(N(C3CC(C)(C)NC(C)(C)C3)C3CC(C)(C)NC(C)(C)C3)nc(N(C3CC(C)(C)NC(C)(C)C3)C3CC(C)(C)NC(C)(C)C3)n2)C2CC(C)(C)NC(C)(C)C2)CC(C)(C)N1	325 to 330 °C
CCCc1nc(C(C)(C)O)c(C(=O)OC2OC(=O)c3ccccc32)n1Cc1ccc(-c2ccccc2-c2nnnn2C(c2ccccc2)(c2ccccc2)c2ccccc2)cc1 (stereo not given)	118 to 120 °C
Nc1ncnc2c1c(I)cn2COC(O)CCO (stereo not given)	177 to 178 °C
O=S(=O)(C(/C=C/c1ccc(I)cc1)c1ccc(Cl)cc1Cl)C(/C=C/c1ccc(I)cc1)c1ccc(Cl)cc1Cl (stereo not given)	181 to 182 °C
BrCCCCCCCCCCCBr	-11 °C
CC(C)C(NC(=O)N(C)Cc1ccccn1)C(=O)NC(Cc1ccccc1)C(O)C(O)C(Cc1ccccc1)NC(=O)C(NC(=O)N(C)Cc1nccs1)C(C)C (stereo not given)	96 to 97 °C
C=Cc1cc(C=Cc2cc(C=Cc3cc(C(C)(C)C)cc(C(C)(C)C)c3)cc(C=Cc3cc(C(C)(C)C)cc(C(C)(C)C)c3)c2)cc(C=Cc2cc(C=Cc3cc(C(C)(C)C)cc(C(C)(C)C)c3)cc(C=Cc3cc(C(C)(C)C)cc(C(C)(C)C)c3)c2)c1	272 to 275 °C
CN=S(=O)(NC(=O)Nc1nc(C)nc(OC)n1)c1ccccc1Cl (stereo not given)	154 to 160 °C

The next lines start with the values.

melting point	Structure (SMILES)
48 to 50 °C	CCCCCCCCCCCCCC=CC(OC(=O)c1ccccc1)C(COC1OC(CO)C(OCCC(C(=O)OC(C)(C)C)C(=O)OC(C)(C)C)C(O)C1O)NC(=O)CCCCCCCCCCCCCCC (stereo not given)
95 °C	CCCCCCCCCS(=O)(=O)c1c(S(=O)(=O)CCCCCCCCC)c(S(=O)(=O)CCCCCCCCC)c(S(=O)(=O)CCCCCCCCC)c(S(=O)(=O)CCCCCCCCC)c1S(=O)(=O)CCCCCCCCC
54 to 55 °C	CCCCCCCCCCCCCCCCCCOc1ccc(OCCCOc2ccc(OCc3ccccc3)cc2)c(C(=O)N(CC(=O)OCC)CC(=O)OCC)c1
72.8 °C	C=CC(=O)OCCCCCCCCCCCOc1ccc(-c2nc(-c3ccc(OCCCCCCCCCCCOC(=O)C=C)cc3O)nc(-c3ccc(OCCCCCCCCCCCOC(=O)C=C)cc3O)n2)c(O)c1
68 to 69 °C	O=C(CCS(=O)(=O)CCCl)OCC(COC(=O)CCS(=O)(=O)CCCl)(COC(=O)CCS(=O)(=O)CCCl)COC(=O)CCS(=O)(=O)CCCl
177 to 185 °C	N=C(NC(=O)OCc1ccccc1)N(CCCC(NC(=O)C(Cc1ccccc1)NC(=O)c1ccccc1)C(=O)Oc1cccc2ccccc12)C(=O)OCc1ccccc1 (stereo not given)
34 to 35 °C	CCCCCCCCCCCCCCCCCCCCCCCCCC(C)=CCCC(C)=CCCC(C)=CCCC(C)=CCCC(C)=CCCC(C)=CCCC(C)=CCCC(C)=CCCC(C)=CCOC(=O)C1CCCCC1
148 to 150 °C	COc1cc(OC)c(/C=C/C(c2ccc(OC)c(NC(=O)C(C)(C)OC(C)=O)c2)S(=O)(=O)C(/C=C/c2c(OC)cc(OC)cc2OC)c2ccc(OC)c(NC(=O)C(C)(C)OC(C)=O)c2)c(OC)c1 (stereo not given)
96 to 98 °C	CCCCCCCCCCCCCCCCCCN(CCCCCCCCCCCCCCCCCC)C(=O)c1cc(NS(=O)(=O)c2ccc(NN)nc2)c2ccccc2c1O
119 to 121 °C	O=C(O)Cc1cccc(-c2cc(CCCC(=O)N3CCC(CCCC4CCN(C(=O)CCCc5ccc(OC6OC(CO)C(O)C(O)C6O)c(-c6cccc(CC(=O)O)c6)c5)CC4)CC3)ccc2OC2OC(CO)C(O)C(O)C2O)c1 (stereo not given)
44 to 46 °C	CCCCCCCCCCCCCCCC(=O)OCC(COC(=O)CCCCCCCCCCCCCCC)OC(=O)CCCC(=O)Oc1cc(Cl)ccc1Oc1ccc(Cl)cc1Cl
57 to 58 °C	CCCCCCCCCCSc1c(SCCCCCCCCCC)c(SCCCCCCCCCC)c(C(O)=NCCO)c(C(=O)O)c1SCCCCCCCCCC
47.5 to 48.5 °C	CCCCCCCCCCCCCC=CC(OC(=O)c1ccccc1)C(COC1OC(COCCC(C(=O)OC(C)(C)C)C(=O)OC(C)(C)C)C(O)C(O)C1O)NC(=O)CCCCCCCCCCCCCCC (stereo not given)
255 °C	COc1cc(C2c3cc4c(cc3C(NC(=O)CNCCCN(CCCCNC(=O)OCc3ccccc3)C(=O)OCc3ccccc3)C3COC(=O)C23)OCO4)cc(OC)c1O (stereo not given)
200 to 202 °C	CCCCCCCCCCCCN(CCCCCCCCCCCC)S(=O)(=O)c1cc(NS(=O)(=O)c2ccc(NC(C)=O)c3c(O)c(N=Nc4ccccc4OC)ccc23)c(O)c2ccccc12
198 °C	CC(=O)N(CC(CO)(CO)CN(Oc1c(I)c(C(=O)N(CCO)CCO)c(I)c(C(=O)N(CCO)CCO)c1I)C(C)=O)Oc1c(I)c(C(=O)N(CCO)CCO)c(I)c(C(=O)N(CCO)CCO)c1I
93.3 °C	C=CC(=O)OCCCCCCCCCCCOc1ccc(-c2nc(-c3ccccc3)nc(-c3ccc(OCCCCCCCCCCCOC(=O)C=C)cc3O)n2)c(O)c1
88 to 89 °C	CCCCCCCCCCCCCCCCCCN(CCCCCCCCCCCCCCCCCC)C(=O)c1cc(NS(=O)(=O)c2cnc(Cl)c(Cl)c2)c2ccccc2c1O
76.5 to 78 °C	CCOC(=O)C1=C(COCC(O)C(O)COCC2=C(C(=O)OCC)C(c3ccccc3Cl)C(C(=O)OC)=C(C)N2)NC(C)=C(C(=O)OC)C1c1ccccc1Cl (stereo not given)
